Patent US20260285880A1, “SUBSTITUTED DIHYDROTHIENOPYRIMIDINE COMPOUND, PREPARATION METHOD THEREFOR, AND USE THEREOF” (SHANGHAI YIDI BIOTECHNOLOGY CO., LTD., priority 2023, published 2026)
Read-outs that look alike come from different tables or passages of the source.

Molecular target: Flpin-293-PDE4B2 cells (Homo sapiens, UniProt Q07343)
Experiment: cell-based
[1] = read-out: Cell Inhibition % @1 nM, 1 nM, Flpin-293-PDE4B2 cells
[2] = read-out: Cell Inhibition % @10 nM, 10 nM, Flpin-293-PDE4B2 cells
[3] = read-out: Cell Inhibition % @100 nM, 100 nM, Flpin-293-PDE4B2 cells

Chain of Flpin-293-PDE4B2 cells (Q07343 1-564 isoform Q07343-2): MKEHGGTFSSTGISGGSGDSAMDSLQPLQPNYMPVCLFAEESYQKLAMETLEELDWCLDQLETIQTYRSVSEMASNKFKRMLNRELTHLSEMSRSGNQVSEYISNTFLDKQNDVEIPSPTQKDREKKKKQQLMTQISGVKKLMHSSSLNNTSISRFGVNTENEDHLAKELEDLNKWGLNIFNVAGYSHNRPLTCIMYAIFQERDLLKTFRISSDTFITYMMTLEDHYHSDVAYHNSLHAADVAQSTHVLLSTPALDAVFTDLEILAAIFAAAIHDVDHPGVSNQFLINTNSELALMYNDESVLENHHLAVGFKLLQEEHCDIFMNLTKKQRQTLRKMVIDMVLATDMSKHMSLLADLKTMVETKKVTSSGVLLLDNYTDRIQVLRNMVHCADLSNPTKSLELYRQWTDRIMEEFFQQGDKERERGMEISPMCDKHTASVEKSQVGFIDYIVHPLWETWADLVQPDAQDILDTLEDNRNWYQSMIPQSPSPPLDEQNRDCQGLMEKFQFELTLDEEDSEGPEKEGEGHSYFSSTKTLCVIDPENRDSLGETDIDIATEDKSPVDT

Row | SMILES | inhibition at 0.001 µM [1] [%] | inhibition at 0.01 µM [2] [%] | inhibition at 0.1 µM [3] [%] | inhibition at 0.001 µM (read-out: Cell Inhibition % @1 nM) [%] | inhibition at 0.01 µM (read-out: Cell Inhibition % @10 nM) [%] | inhibition at 0.1 µM (read-out: Cell Inhibition % @100 nM) [%]
1 | O=C1CCCN1c1ccc2c(c1)CCN(c1nc3c(c(NC4(CO)CCC4)n1)[S+]([O-])CC3)C2 (stereo not shown) [Compound 87] | 2.9 | 31.3 | 89.1 |  |  | 
2 | [O-][S+]1CCc2nc(N3CCc4nc(Br)sc4C3)nc(NC3(CO)CCC3)c21 (stereo not shown) [Compound 63] |  | 31.1 | 76.6 |  |  | 
3 | CN1CCN(c2ccc3c(c2)CCN(c2nc4c(c(NC5(CO)CCC5)n2)[S+]([O-])CC4)C3)C1=O (stereo not shown) [Compound 86] | 8.69 | 63.1 | 97.8 |  |  | 
4 | [O-][S+]1CCc2nc(N3CCc4cc(-c5ncco5)ccc4C3)nc(NC3(CO)CCC3)c21 (stereo not shown) [Compound 84] | 32.9 | 97 | 101 |  |  | 
5 | Nc1nc2cc(Cl)ccc2c2c1CN(c1nc3c(c(NC4(CO)CCC4)n1)[S+]([O-])CC3)CC2 (stereo not shown) [Compound 102] | -0.08 | 35.9 | 95.5 |  |  | 
6 | [O-][S+]1CCc2nc(N3CCC4=C(COc5ccccc54)C3)nc(NC3(CO)CCC3)c21 (stereo not shown) [Compound 97] | 1.66 | 17.4 | 86.5 |  |  | 
7 | [O-][S+]1CCc2nc(N3CCc4cc(N5CCCC5)ccc4C3)nc(NC3(CO)CCC3)c21 (stereo not shown) [Compound 92] | 3.35 | 43.7 | 98.2 |  |  | 
8 | [O-][S+]1CCc2nc(N3CCc4cc(F)c(F)cc4C3)nc(NC3(CO)CCC3)c21 (stereo not shown) [Compound 95] | -4.2 | 6.8 | 66.7 |  |  | 
9 | [O-][S+]1CCc2nc(N3CCc4c(c(NCCO)nc5cc(Cl)ccc45)C3)nc(NC3(CO)CCC3)c21 (stereo not shown) [Compound 103] | 2.83 | 38.9 | 95.4 |  |  | 
10 | [O-][S+]1CCc2nc(N3CCc4cc(N5CC(F)(F)C5)ccc4C3)nc(NC3(CO)CCC3)c21 (stereo not shown) [Compound 88] | 3.67 | 28.8 | 93.5 |  |  | 
11 | [O-][S+]1CCc2nc(N3CCc4cc(Cl)ncc4C3)nc(NC3(CO)CCC3)c21 (stereo not shown) [Compound 78] |  |  |  | 2.2 | 32.1 | 86.3
12 | COc1ccc2sc3c(c2c1)CCN(c1nc2c(c(NC4(CO)CCC4)n1)[S+]([O-])CC2)C3 (stereo not shown) [Compound 82] | 19.1 | 77.5 | 99.9 |  |  | 
13 | [O-][S+]1CCc2nc(N3CCc4c(nn5cc(F)ccc45)C3)nc(NC3(CO)CCC3)c21 (stereo not shown) [Compound 32] | 23.5 | 74.2 | 97.7 |  |  | 
14 | NC(=O)c1ccc2c(c1)CCN(c1nc3c(c(NC4(CO)CCC4)n1)[S+]([O-])CC3)C2 (stereo not shown) [Compound 75] | 4.93 | 24.9 | 51.4 |  |  | 
15 | [O-][S+]1CCc2nc(N3CCc4cc(-n5cccn5)ccc4C3)nc(NC3(CO)CCC3)c21 (stereo not shown) [Compound 91] | 19.2 | 86 | 100 |  |  | 
16 | COc1nc2c(c3ccc(Cl)cc13)CCN(c1nc3c(c(NC4(CO)CCC4)n1)[S+]([O-])CC3)C2 (stereo not shown) [Compound 99] | 4.18 | 43.7 | 96.5 |  |  | 
17 | [O-][S+]1CCc2nc(N3CCc4cnc(Cl)cc4C3)nc(NC3(CO)CCC3)c21 (stereo not shown) [Compound 79] | 1.99 | 11.2 | 59.4 |  |  | 
18 | Cn1cnc(-c2ccc3c(c2)CCN(c2nc4c(c(NC5(CO)CCC5)n2)[S+]([O-])CC4)C3)n1 (stereo not shown) [Compound 94] | 34.8 | 94.1 | 100 |  |  | 
19 | Cn1cc2c(n1)CN(c1nc3c(c(NC4(CO)CCC4)n1)[S+]([O-])CC3)CC2 (stereo not shown) [Compound 30] |  | 11.3 | 48 |  |  | 

Now from value to molecule, other results behind:

Row | inhibition at 0.001 µM [1] [%] | inhibition at 0.01 µM [2] [%] | inhibition at 0.1 µM [3] [%] | SMILES | inhibition at 0.001 µM (read-out: Cell Inhibition % @1 nM) [%] | inhibition at 0.01 µM (read-out: Cell Inhibition % @10 nM) [%] | inhibition at 0.1 µM (read-out: Cell Inhibition % @100 nM) [%]
20 | 3.77 | 46 | 96.6 | [O-][S+]1CCc2nc(N3CCc4cc(N5CC[C@H](O)C5)ccc4C3)nc(NC3(CO)CCC3)c21 (stereo partly shown) [Compound 172] |  |  | 
21 | 7.72 | 39.7 | 97.7 | [O-][S+]1CCc2nc(N3CC[C@@H]4c5ccc(Br)cc5OC[C@H]4C3)nc(NC3(CO)CCC3)c21 (stereo partly shown) [Compound 115] |  |  | 
22 | 17.7 | 65.4 | 97.8 | [O-][S+]1CCc2nc(N3CC[C@@H]4c5ccc(F)cc5OC[C@H]4C3)nc(NC3(CO)CCC3)c21 (stereo partly shown) [Compound 109] |  |  | 
23 | 7.53 | 42.5 | 93.5 | Cn1nc(Cl)c2c3c(cnc21)CN(c1nc2c(c(NC4(CO)CCC4)n1)[S+]([O-])CC2)CC3 (stereo not shown) [Compound 105] |  |  | 
24 | 2.48 | 25 | 84.5 | C[C@H]1c2ccc(N3CCCC3)cc2CCN1c1nc2c(c(Nc3ncnn3C)n1)[S+]([O-])CC2 (stereo partly shown) [Compound 217] |  |  | 
25 | 6.93 | 39.6 | 72.2 | O=C(O)Cc1ccc(Nc2nc(N3CCc4cc(Cl)ccc4C3)nc3c2[S@+]([O-])CC3)cc1 [Compound 129] |  |  | 
26 | 4.48 | 9.75 | 61.7 | C[C@H]1c2ccc(N3CCCC3)cc2CCN1c1nc2c(c(Nc3cnn(C4CN(C)C4)c3)n1)[S+]([O-])CC2 (stereo partly shown) [Compound 209] |  |  | 
27 | 2.82 | 52.5 | 98.1 | [O-][S+]1CCc2nc(N3CC[C@@H]4c5cccc(Cl)c5OC[C@H]4C3)nc(NC3(CO)CCC3)c21 (stereo partly shown) [Compound 107] |  |  | 
28 | 4.94 | 21.8 | 83.8 | NC(=O)Nc1ccc(Nc2nc(N3CCc4cc(Cl)ccc4C3)nc3c2[S+]([O-])CC3)cc1 (stereo not shown) [Compound 137] |  |  | 
29 | 16.2 | 78.6 | 102 | [O-][S+]1CCc2nc(N3CCc4cc(Cl)ccc4C3)nc(Nc3ccc(CCO)cc3)c21 (stereo not shown) [Compound 139] |  |  | 
30 | 4.06 | 36.5 | 94.3 | [O-][S+]1CCc2nc(N3CCc4cc(N5CCC(CO)C5)ccc4C3)nc(NC3(CO)CCC3)c21 (stereo not shown) [Compound 171] |  |  | 
31 | 9.25 | 29.6 | 89 | C[C@H]1c2ccc(N3CCCC3)cc2CCN1c1nc2c(c(Nc3nnn(C)n3)n1)[S+]([O-])CC2 (stereo partly shown) [Compound 213] |  |  | 
32 | 12.5 | 50.1 | 98.4 | C[C@H]1c2ccc(N3CCCC3)cc2CCN1c1nc2c(c(NC3(CO)CCOC3)n1)[S+]([O-])CC2 (stereo partly shown) [Compound 211] |  |  | 
33 | 28.5 | 92.4 | 101 | C[C@H]1c2ccc(N3CCCC3)cc2CCN1c1nc2c(c(NC3CCOCC3)n1)[S+]([O-])CC2 (stereo partly shown) [Compound 205] |  |  | 
34 | 11.3 | 71.5 | 99.7 | C[C@H]1c2ccc(N3CCCC3)cc2CCN1c1nc2c(c(NC3(CO)CCCC3)n1)[S+]([O-])CC2 (stereo partly shown) [Compound 221] |  |  | 
35 | 11.4 | 49.2 | 96 | Cn1cc(Nc2nc(N3CCc4cc(Cl)ccc4C3)nc3c2[S+]([O-])CC3)cn1 (stereo not shown) [Compound 141] |  |  | 
36 | 4.95 | 27.9 | 89.6 | N#CCc1ccc(Nc2nc(N3CCc4cc(Cl)ccc4C3)nc3c2[S+]([O-])CC3)cc1 (stereo not shown) [Compound 138] |  |  | 
37 | -0.51 | 8.04 | 61.6 | COC[C@@H](CO)Nc1nc(N2CCc3cc(N4CCCC4)ccc3C2)nc2c1[S+]([O-])CC2 (stereo partly shown) [Compound 199] |  |  | 
38 | 14.8 | 84.1 | 99.9 | C[C@H]1c2ccc(N3CCCC3)cc2CCN1c1nc2c(c(NC3(CO)CC3)n1)[S+]([O-])CC2 (stereo partly shown) [Compound 203] |  |  | 
39 | 0.41 | 21.2 | 67.5 | [O-][n+]1cc2c(c3ccc(Cl)cc31)CCN(c1nc3c(c(NC4(CO)CCC4)n1)[S+]([O-])CC3)C2 (stereo not shown) [Compound 106] |  |  | 
40 | 30.8 | 94.4 | 100 | C[C@H]1c2ccc(N3CCCC3)cc2CCN1c1nc2c(c(Nc3cnn(C)c3)n1)[S+]([O-])CC2 (stereo partly shown) [Compound 207] |  |  | 
41 | -0.82 | 37.4 | 95.1 | [O-][S+]1CCc2nc(N3CC[C@@H]4c5cc(Cl)ccc5OC[C@H]4C3)nc(NC3(CO)CCC3)c21 (stereo partly shown) [Compound 108] |  |  | 
42 | 8.67 | 32.2 | 94.4 | COC[C@@H]1CCCN1c1ccc2c(c1)CCN(c1nc3c(c(NC4(CO)CCC4)n1)[S+]([O-])CC3)C2 (stereo partly shown) [Compound 147] |  |  | 
43 | 13.8 | 73.4 | 100 | C[C@H]1c2ccc(N3CCCC3)cc2CCN1c1nc2c(c(Nc3cnn(CCC#N)c3)n1)[S+]([O-])CC2 (stereo partly shown) [Compound 220] |  |  | 
44 | 26.9 | 89.7 | 100 | C[C@H]1c2ccc(N3CCCC3)cc2CCN1c1nc2c(c(NCc3cnn(C)c3)n1)[S+]([O-])CC2 (stereo partly shown) [Compound 206] |  |  | 
45 | 8.53 | 68 | 98.9 | [O-][S+]1CCc2nc(N3CCc4cc(N5C[C@H]6COC[C@H]6C5)ccc4C3)nc(NC3(CO)CCC3)c21 (stereo partly shown) [Compound 178] |  |  | 
46 | 52.5 | 99.4 | 101 | C[C@H]1c2ccc(N3CCCC3)cc2CCN1c1nc2c(c(N[C@H]3CCC(=O)N(C)C3)n1)[S+]([O-])CC2 (stereo partly shown) [Compound 202] |  |  | 
47 | 3.3 | 29.6 | 86.8 | C[C@H]1c2ccc(Br)cc2CCN1c1nc2c(c(NC3(CO)CCC3)n1)[S+]([O-])CC2 (stereo partly shown) [Compound 123] |  |  | 
